Measurements published in article PMC4933591 (Bioconjugate chemistry, 2015).
Non-standard residues stand in square brackets, D forms with d. Residues, ends and D or L forms follow the SMILES beside them. Aha = [N-]=[N+]=NCC[C@H](N)C(=O)O

Experiments:
GLP-1R = target: T1, GLP-1R (Mus musculus, UniProt O35659); assay: In vitro receptor binding assay using NIT-1 cells
T1 sequence (O35659 22-463): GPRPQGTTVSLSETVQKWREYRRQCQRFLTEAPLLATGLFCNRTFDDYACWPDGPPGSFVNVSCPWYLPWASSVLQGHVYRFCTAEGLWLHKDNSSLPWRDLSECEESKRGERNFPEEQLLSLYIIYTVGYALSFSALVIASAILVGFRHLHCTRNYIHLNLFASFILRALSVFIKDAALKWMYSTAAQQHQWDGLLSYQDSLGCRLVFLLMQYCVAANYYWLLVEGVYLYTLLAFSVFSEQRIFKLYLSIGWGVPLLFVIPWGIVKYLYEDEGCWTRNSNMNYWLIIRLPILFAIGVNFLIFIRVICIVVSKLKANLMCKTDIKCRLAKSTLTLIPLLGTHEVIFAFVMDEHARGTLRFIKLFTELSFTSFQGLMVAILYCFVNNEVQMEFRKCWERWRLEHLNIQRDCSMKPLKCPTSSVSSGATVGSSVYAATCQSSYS

[1] = Aggregation observed during experiments; type: physicochemical; conditions: lower concentrations during experiments

## CC[C@H](C)[C@H](NC(=O)[C@H](Cc1ccccc1)NC(=O)[C@H](CCN=[N+]=[N-])NC(=O)[C@H](CCCCN)NC(=O)[C@H](C)NC(=O)[C@H](C)NC(=O)[C@H](CCC(N)=O)NC(=O)CNC(=O)[C@H](CCC(=O)O)NC(=O)[C@H](CCN=[N+]=[N-])NC(=O)[C@H](Cc1ccc(O)cc1)NC(=O)[C@H](CO)NC(=O)[C@H](CO)NC(=O)[C@@H](NC(=O)[C@H](CC(=O)O)NC(=O)[C@H](CO)NC(=O)[C@@H](NC(=O)[C@H](Cc1ccccc1)NC(=O)[C@@H](NC(=O)CNC(=O)[C@H](CCC(=O)O)NC(=O)[C@H](C)NC(=O)[C@@H](N)Cc1c[nH]cn1)[C@@H](C)O)[C@@H](C)O)C(C)C)C(=O)N[C@@H](C)C(=O)N[C@@H](Cc1c[nH]c2ccccc12)C(=O)N[C@@H](CC(C)C)C(=O)N[C@H](C(=O)N[C@@H](CCCCN)C(=O)NCC(=O)N[C@@H](CCCNC(=N)N)C(N)=O)C(C)C [double mutant GLP-1] (H-HAEGTFTSDVSSY[Aha]EGQAAK[Aha]FIAWLVKGR-NH2)
trypsin
  half-life slower than wild-type GLP-1: 1 to 2 orders of magnitude
GLP-1R
  Kd: 5.6 nM
[1]
  aggregation: no aggregation was detected at lower concentrations
